Data from US20230416205A1, “COMPOUNDS, COMPOSITIONS, AND METHODS” (Denali Therapeutics Inc, priority 2020, published 2023).
Read-outs that look alike come from different tables or passages of the source.

Tested on: NLRP3
Assay: IL-1β secretion assay in PMA-differentiated, LPS/nigericin-stimulated THP-1 cells (384-well, ELISA read-out)
Format: cell-based, human
Method: Compounds as provided herein were tested in the following assay. Cell culture medium employed contained RPMI 1640 medium (89%), FBS (10%), Pen/Strep (1%), and 2-mercaptoethanol (0.05 mM). Freezing medium was made up of 90% FBS and 10% DMSO. THP-1 cells were removed from the liquid nitrogen and placed into a 37° C. water bath to thaw, until signs of ice dissipated. The cells were then added to 9 mL of warm cell culture medium and centrifuged for 5 minutes at 1000 rpm. The supernatant was discarded, and the cells were resuspended in new cell culture medium. THP-1 cells were then split and cultured in the cell culture medium, being passaged every 2-3 days with the cell density will be maintained between 5×10^5 and 1.5×10^6 viable cells/mL.
To freeze, cells were resuspended with fresh freezing medium, adjusting the cell density to 5×10^6 cells/mL. The cell suspension was partitioned into 1 mL aliquots per vial, and the vials were transferred to a −80° C. freezer. After one day at −80° C., the cell vials were transferred to liquid nitrogen freezer for storage.
PMA was dissolved in DMSO to make a stock solution at 5 mg/mL and stored in 10 μl aliquots at −20° C. for single use. PMA is added to normal growth medium. LPS was diluted with 1 mL of water solution to provide a 1 mg/mL stock solution and stored in 15 μl aliquots at −20° C. for single use. Nigericin is diluted in ice cold 100% ethanol to 5 mg/mL (6.7 mM) and stored in 75 μL aliquots at −20° C. for single use. Serum-free media contains RPMI 1640 medium (99%), Pen/Strep (1%), and 2-mercaptoethanol (0.05 mM). The two control conditions used to qualify and normalize test compound dose-response curves were as follows: High Control=25 ng/mL LPS, 5 μM Nigericin, 0.5% DMSO, Low Control=25 ng/mL, LPS, 0.5% DMSO.
THP-1 cells were diluted to provide a suspension at a concentration of 1.0×10^6 cells/mL with the total volume of suspension required to enable the desired number of assay plates. The growth media was supplemented with PMA (5 ng/mL final concentration) and the cells were incubated at 37° C. under a humidified atmosphere of 5% CO2 for 40 h.
All media was carefully aspirated from each culture flask. The cells were washed carefully with 1×DPBS. The cells were then briefly digested with trypsin LE for 5 minutes at 23° C., and immediately resuspended in cell growth media. After resuspension, the cells were centrifuged at 1000 rpm for 3 minutes and the supernatant was discarded. The cells were resuspended in DPBS and once again centrifuged at 1000 rpm for 5 minutes. The supernatant was discarded and the cell pellet was resuspended in serum-free media supplemented with LPS (25 ng/mL final concentration) to enable the distribution of 30K THP-1 cells within 45 μL of media into each well of 384-well PDL-coated plates. The 384-well plates were then incubated at 37° C. under a humidified atmosphere of 5% CO2 for 2 h. Following this period, test compounds were dispensed by Tecan across the desired concentration range with all wells normalized to a final 0.5% DMSO concentration. The plates were then incubated at 37° C. under a humidified atmosphere of 5% CO2 for 1 h. Following this period, 5 μL of the […] was added to each of the appropriate wells and plates were centrifuged at 1000 rpm for 30 seconds. The plates were the immediately reintroduced to the incubator at 37° C. under a humidified atmosphere of 5% CO2 for 2 h. After this time, 35 μL/well of supernatant was collected and transferred into v-bottom plate and centrifuged at 1000 rpm for 1 minute. These supernatant aliquots were analyzed using an IL-Iβ detection kit as described below. If needed, the test samples could be snap frozen and stored at −80° C. until analyzed.
To prepare each ELISA plate, capture antibody (mAb Mt175) was diluted with PBS to a final concentration of 2 μg/mL and then 20 μL of this solution was added to each well of the ELISA plate. Each plate was allowed to incubate overnight at 4° C.

[1] = Homo sapiens, THP-1, IL-1β secretion, PMA-differentiated THP-1 cells, LPS then nigericin stimulation, ELISA read at 450 nm, read-out: Activity
[2] = Homo sapiens, THP-1, Table 4, IL-1β secretion, LPS/nigericin-stimulated THP-1 cells, read-out: IC50
[3] = Table 4, IL-1β secretion, LPS/nigericin-stimulated THP-1 cells, read-out: IC50
[4] = IL-1β secretion, PMA-differentiated THP-1 cells, LPS then nigericin stimulation, ELISA read at 450 nm, read-out: Activity

Structure (SMILES) | IC50 [1] | IC50 [2] | IC50 [3] | IC50 [4]
O=C(CN1C[C@@]2(C[C@H]2F)c2cc(Br)ccc2C1=O)Nc1ncc(F)cn1 (mixture of isomers) [Example 80, 2-[(2′r,4r)-6-bromo-2′-fluoro-1-oxospiro[3H-isoquinoline-4,1′-cyclopropane]-2-yl]-N-(5-fluoropyrimidin-2-yl)acetamide] | < 10000 nM | 1060 nM |  | 
O=C(CN1C[C@@]2(C[C@@H]2F)c2cc(Br)cc(F)c2C1=O)Nc1ncc(F)cn1 (mixture of isomers) [Example 285, 2-[(2′s,4r)-6-bromo-2′,8-difluoro-1-oxospiro[3H-isoquinoline-4,1′-cyclopropane]-2-yl]-N-(5-fluoropyrimidin-2-yl)acetamide] | < 10000 nM | 165 nM |  | 
O=C(CN1C[C@@]2(C[C@@H]2F)c2cc(Br)ccc2C1=O)Nc1ncc(F)cn1 (single isomer, unassigned) [Example 78] | < 10000 nM | 208 nM |  | 
O=C(CN1C[C@@]2(C[C@@H]2F)c2c(ccc(Br)c2F)C1=O)Nc1ncc(F)cn1 (single isomer, unassigned) [Example 220, 2-[(2′s,4r)-6-bromo-2′,5-difluoro-1-oxospiro[3H-isoquinoline-4,1′-cyclopropane]-2-yl]-N-(5-fluoropyrimidin-2-yl)acetamide] | < 10000 nM | 20 nM |  | 
N#Cc1cnc(NC(=O)CN2C[C@@]3(C[C@@H]3F)c3c(ccc(Br)c3F)C2=O)nc1 (single isomer, unassigned) [Example 221, 2-[(2′s,4r)-6-bromo-2′,5-difluoro-1-oxospiro[3H-isoquinoline-4,1′-cyclopropane]-2-yl]-N-(5-cyanopyrimidin-2-yl)acetamide] | < 10000 nM | 14 nM |  | 
O=C(CN1C[C@@]2(C[C@@H]2F)c2c(ccc(Br)c2F)C1=O)Nc1ncc(Cl)cn1 (single isomer, unassigned) [Example 222, 2-[(2′s,4r)-6-bromo-2′,5-difluoro-1-oxospiro[3H-isoquinoline-4,1′-cyclopropane]-2-yl]-N-(5-chloropyrimidin-2-yl)acetamide] | < 10000 nM | 11 nM |  | 
O=C(CN1C[C@@]2(C[C@@H]2F)c2c(ccc(Cl)c2F)C1=O)Nc1ncc(F)cn1 (single isomer, unassigned) [Example 223, 2-[(2′s,4r)-6-chloro-2′,5-difluoro-1-oxospiro[3H-isoquinoline-4,1′-cyclopropane]-2-yl]-N-(5-fluoropyrimidin-2-yl)acetamide] | < 10000 nM | 55 nM |  | 
O=C(CN1C[C@@]2(C[C@@H]2F)c2c(ccc(Br)c2F)C1=O)Nc1ncccn1 (single isomer, unassigned) [Example 224, 2-[(2′s,4r)-6-bromo-2′,5-difluoro-1-oxospiro[3H-isoquinoline-4,1′-cyclopropane]-2-yl]-N-pyrimidin-2-ylacetamide] | < 10000 nM | 49 nM |  | 
Cc1cnc(NC(=O)CN2C[C@@]3(C[C@@H]3F)c3c(ccc(Br)c3F)C2=O)nc1 (single isomer, unassigned) [Example 225, 2-[(2′s,4r)-6-bromo-2′,5-difluoro-1-oxospiro[3H-isoquinoline-4,1′-cyclopropane]-2-yl]-N-(5-methylpyrimidin-2-yl)acetamide] | < 10000 nM | 19 nM |  | 
O=C(CN1C[C@@]2(C[C@@H]2F)c2c(ccc(Br)c2F)C1=O)Nc1ncc(C(F)(F)F)cn1 (single isomer, unassigned) [Example 226, 2-[(2′s,4r)-6-bromo-2′,5-difluoro-1-oxospiro[3H-isoquinoline-4,1′-cyclopropane]-2-yl]-N-[5-(trifluoromethyl)pyrimidin-2-yl]acetamide] | < 10000 nM | 31 nM |  | 
O=C(CN1C[C@]2(C[C@H]2F)c2c(ccc(Br)c2F)C1=O)Nc1ncccn1 (single isomer, unassigned) [Example 227, 2-[(2′s,4r)-6-bromo-2′,5-difluoro-1-oxospiro[3H-isoquinoline-4,1′-cyclopropane]-2-yl]-N-pyrimidin-2-ylacetamide] | < 10000 nM | 127 nM |  | 
O=C(CN1C[C@@]2(C[C@@H]2F)c2c(ccc(C3CC3)c2F)C1=O)Nc1ncc(F)cn1 (single isomer, unassigned) [Example 228, 2-[(2′s,4r)-6-cyclopropyl-2′,5-difluoro-1-oxospiro[3H-isoquinoline-4,1′-cyclopropane]-2-yl]-N-(5-fluoropyrimidin-2-yl)acetamide] | < 10000 nM | 21 nM |  | 
O=C(CN1C[C@@]2(C[C@@H]2F)c2c(ccc(C3CC3)c2F)C1=O)Nc1ncc(Cl)cn1 (single isomer, unassigned) [Example 229, 2-[(2′s,4r)-6-cyclopropyl-2′,5-difluoro-1-oxospiro[3H-isoquinoline-4,1′-cyclopropane]-2-yl]-N-(5-chloropyrimidin-2-yl)acetamide] | < 10000 nM | 32 nM |  | 
O=C(CN1C[C@@]2(C[C@@H]2F)c2cc(C(F)(F)F)ccc2C1=O)Nc1ncc(F)cn1 (single isomer, unassigned) [Example 234, 2-[(2′s,4r)-2′-fluoro-1-oxo-6-(trifluoromethyl)spiro[3H-isoquinoline-4,1′-cyclopropane]-2-yl]-N-(5-fluoropyrimidin-2-yl)acetamide] | < 10000 nM |  | 78 nM | 
O=C(CN1C[C@@]2(C[C@@H]2F)c2cc(C(F)(F)F)ccc2C1=O)Nc1ncc(F)cn1 (single isomer, unassigned) [Example 235, 2-[(2′s,4r)-2′-fluoro-1-oxo-6-(trifluoromethyl)spiro[3H-isoquinoline-4,1′-cyclopropane]-2-yl]-N-(5-fluoropyrimidin-2-yl)acetamide] |  |  | 850 nM | < 10000 nM
N#Cc1cnc(NC(=O)CN2C[C@@]3(C[C@@H]3F)c3cc(C(F)(F)F)ccc3C2=O)nc1 (single isomer, unassigned) [Example 236, N-(5-cyanopyrimidin-2-yl)-2-[(2′s,4r)-2′-fluoro-1-oxo-6-(trifluoromethyl)spiro[3H-isoquinoline-4,1′-cyclopropane]-2-yl]acetamide] | < 10000 nM |  | 1120 nM | 
N#Cc1cnc(NC(=O)CN2C[C@@]3(C[C@@H]3F)c3cc(C(F)(F)F)ccc3C2=O)nc1 (single isomer, unassigned) [Example 237, N-(5-cyanopyrimidin-2-yl)-2-[(2′s,4r)-2′-fluoro-1-oxo-6-(trifluoromethyl)spiro[3H-isoquinoline-4,1′-cyclopropane]-2-yl]acetamide] |  |  | 61 nM | < 10000 nM
O=C(CN1C[C@@]2(C[C@@H]2F)c2cc(C(F)(F)F)ccc2C1=O)Nc1ncc(Cl)cn1 (single isomer, unassigned) [Example 238, N-(5-chloropyrimidin-2-yl)-2-[(2′s,4r)-2′-fluoro-1-oxo-6-(trifluoromethyl)spiro[3H-isoquinoline-4,1′-cyclopropane]-2-yl]acetamide] | < 10000 nM |  | 414 nM | 
O=C(CN1C[C@@]2(C[C@@H]2F)c2cc(C(F)(F)F)ccc2C1=O)Nc1ncc(Cl)cn1 (single isomer, unassigned) [Example 239, N-(5-chloropyrimidin-2-yl)-2-[(2′s,4r)-2′-fluoro-1-oxo-6-(trifluoromethyl)spiro[3H-isoquinoline-4,1′-cyclopropane]-2-yl]acetamide] |  |  | 37 nM | < 10000 nM
